In PubChem BioAssay (NCI):
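Five concentrations, 48 hours, 96-well plates. GI50 marks 50% less growth. Definition used: TGI = concentration required for complete inhibition of growth.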

Columns and labels:
Assay in all cases: DTP human tumour cell line panel, 48 h
MCF7 breast = system: MCF7 breast
K-562 leukemia = system: K-562 leukemia
NCI-H226 lung = system: NCI-H226 lung
COLO 205 colon = system: COLO 205 colon
CAKI-1 renal = system: CAKI-1 renal
RPMI-8226 leukemia = system: RPMI-8226 leukemia
SF-295 CNS = system: SF-295 CNS
786-0 renal = system: 786-0 renal
SF-268 CNS = system: SF-268 CNS
HCT-15 colon = system: HCT-15 colon
PC-3 prostate = system: PC-3 prostate
SR leukemia = system: SR leukemia
RXF 393 renal = system: RXF 393 renal
NCI/ADR-RES ovarian = system: NCI/ADR-RES ovarian
NCI-H23 lung = system: NCI-H23 lung
OVCAR-5 ovarian = system: OVCAR-5 ovarian
OVCAR-4 ovarian = system: OVCAR-4 ovarian
MDA-MB-231 breast = system: MDA-MB-231 breast
NCI-H460 lung = system: NCI-H460 lung
HOP-92 NSCLC = system: HOP-92 NSCLC
NCI-H522 lung = system: NCI-H522 lung
SK-OV-3 ovarian = system: SK-OV-3 ovarian
HS 578T breast = system: HS 578T breast
UACC-62 melanoma = system: UACC-62 melanoma
TK-10 renal = system: TK-10 renal
OVCAR-3 ovarian = system: OVCAR-3 ovarian
SNB-19 CNS = system: SNB-19 CNS
SK-MEL-2 melanoma = system: SK-MEL-2 melanoma
SF-539 CNS = system: SF-539 CNS
OVCAR-8 ovarian = system: OVCAR-8 ovarian
U251 CNS = system: U251 CNS
SNB-75 CNS = system: SNB-75 CNS
M14 melanoma = system: M14 melanoma
LOX IMVI melanoma = system: LOX IMVI melanoma
HT29 colon = system: HT29 colon
EKVX NSCLC = system: EKVX NSCLC
DU-145 prostate = system: DU-145 prostate
HCC-2998 colon = system: HCC-2998 colon
MOLT-4 leukemia = system: MOLT-4 leukemia
A498 renal = system: A498 renal
KM12 colon = system: KM12 colon
SK-MEL-28 melanoma = system: SK-MEL-28 melanoma
UACC-257 melanoma = system: UACC-257 melanoma
UO-31 renal = system: UO-31 renal
SN12C renal = system: SN12C renal
IGROV1 ovarian = system: IGROV1 ovarian
BT-549 breast = system: BT-549 breast
SW-620 colon = system: SW-620 colon
SK-MEL-5 melanoma = system: SK-MEL-5 melanoma
MDA-MB-435 = system: MDA-MB-435
HL-60(TB) leukemia = system: HL-60(TB) leukemia
A549 NSCLC = system: A549 NSCLC
T-47D breast = system: T-47D breast
ACHN renal = system: ACHN renal
HCT-116 colon = system: HCT-116 colon
HOP-62 NSCLC = system: HOP-62 NSCLC

**Q.** What does the source list for `CCOC(=O)C(=Cc1ccc(-c2ccccc2)cc1)C(=O)OCC`?
**A.** GI50 (MCF7 breast): 2.69 µM; TGI (MCF7 breast): 13.2 µM; GI50 (K-562 leukemia): 3.17 µM; TGI (K-562 leukemia): > 100 µM; GI50 (NCI-H226 lung): 2.4 µM; TGI (NCI-H226 lung): 5.21 µM; GI50 (COLO 205 colon): 3.45 µM; TGI (COLO 205 colon): 11.1 µM; GI50 (CAKI-1 renal): 3.24 µM; TGI (CAKI-1 renal): 10.8 µM; GI50 (RPMI-8226 leukemia): 2.43 µM; TGI (RPMI-8226 leukemia): 7.04 µM; GI50 (SF-295 CNS): 5.22 µM; TGI (SF-295 CNS): 18.4 µM; GI50 (786-0 renal): 2.06 µM; TGI (786-0 renal): 4.16 µM; GI50 (SF-268 CNS): 3.06 µM; TGI (SF-268 CNS): 11 µM; GI50 (HCT-15 colon): 1.93 µM; TGI (HCT-15 colon): 4.84 µM; GI50 (PC-3 prostate): 2.51 µM; TGI (PC-3 prostate): 6.09 µM; GI50 (SR leukemia): 3.13 µM; TGI (SR leukemia): 38.3 µM; GI50 (RXF 393 renal): 1.95 µM; TGI (RXF 393 renal): 3.74 µM; GI50 (NCI/ADR-RES ovarian): 3 µM; TGI (NCI/ADR-RES ovarian): 8.77 µM; GI50 (NCI-H23 lung): 2.22 µM; TGI (NCI-H23 lung): 6.34 µM; GI50 (OVCAR-5 ovarian): 2.67 µM; TGI (OVCAR-5 ovarian): 6.48 µM; GI50 (OVCAR-4 ovarian): 6.3 µM; TGI (OVCAR-4 ovarian): 19.9 µM; GI50 (MDA-MB-231 breast): 2.98 µM; TGI (MDA-MB-231 breast): 7.2 µM; GI50 (NCI-H460 lung): 5.04 µM; TGI (NCI-H460 lung): 17.2 µM; GI50 (HOP-92 NSCLC): 2.42 µM; TGI (HOP-92 NSCLC): 6.72 µM; GI50 (NCI-H522 lung): 1.68 µM; TGI (NCI-H522 lung): 3.38 µM; GI50 (SK-OV-3 ovarian): 11.7 µM; TGI (SK-OV-3 ovarian): 24.8 µM; GI50 (HS 578T breast): 4.36 µM; TGI (HS 578T breast): 25.7 µM; GI50 (UACC-62 melanoma): 1.76 µM; TGI (UACC-62 melanoma): 3.69 µM; GI50 (TK-10 renal): 3.91 µM; TGI (TK-10 renal): 13.3 µM; GI50 (OVCAR-3 ovarian): 2.86 µM; TGI (OVCAR-3 ovarian): 8.18 µM; GI50 (SNB-19 CNS): 2.21 µM; TGI (SNB-19 CNS): 5.14 µM; GI50 (SK-MEL-2 melanoma): 3.81 µM; TGI (SK-MEL-2 melanoma): 11.4 µM; GI50 (SF-539 CNS): 1.8 µM; TGI (SF-539 CNS): 3.35 µM; GI50 (OVCAR-8 ovarian): 2.85 µM; TGI (OVCAR-8 ovarian): > 100 µM; GI50 (U251 CNS): 1.68 µM; TGI (U251 CNS): 5.67 µM; GI50 (SNB-75 CNS): 3.89 µM; TGI (SNB-75 CNS): 16.3 µM; GI50 (M14 melanoma): 3.14 µM; TGI (M14 melanoma): 11.1 µM; GI50 (LOX IMVI melanoma): 1.72 µM; TGI (LOX IMVI melanoma): 3.21 µM; GI50 (HT29 colon): 2.04 µM; TGI (HT29 colon): 3.88 µM; GI50 (EKVX NSCLC): 10.3 µM; TGI (EKVX NSCLC): 22.1 µM; GI50 (DU-145 prostate): 3.12 µM; TGI (DU-145 prostate): 11.1 µM; GI50 (HCC-2998 colon): 1.89 µM; TGI (HCC-2998 colon): 3.54 µM; GI50 (MOLT-4 leukemia): 2.46 µM; TGI (MOLT-4 leukemia): 6.59 µM; GI50 (A498 renal): 3.74 µM; TGI (A498 renal): 12.8 µM; GI50 (KM12 colon): 3.37 µM; TGI (KM12 colon): 12.1 µM; GI50 (SK-MEL-28 melanoma): 1.95 µM; TGI (SK-MEL-28 melanoma): 4.23 µM; GI50 (UACC-257 melanoma): 3.53 µM; TGI (UACC-257 melanoma): 9.29 µM; GI50 (UO-31 renal): 1.71 µM; TGI (UO-31 renal): 3.29 µM; GI50 (SN12C renal): 2.02 µM; TGI (SN12C renal): 4.23 µM; GI50 (IGROV1 ovarian): 2.29 µM; TGI (IGROV1 ovarian): 5.61 µM; GI50 (BT-549 breast): 2.64 µM; TGI (BT-549 breast): 7.03 µM; GI50 (SW-620 colon): 2.07 µM; TGI (SW-620 colon): 4.28 µM; GI50 (SK-MEL-5 melanoma): 2.39 µM; TGI (SK-MEL-5 melanoma): 5.75 µM; GI50 (MDA-MB-435): 2.55 µM; TGI (MDA-MB-435): 7.57 µM; GI50 (HL-60(TB) leukemia): 2.1 µM; TGI (HL-60(TB) leukemia): 4.7 µM; GI50 (A549 NSCLC): 3.61 µM; TGI (A549 NSCLC): > 100 µM; GI50 (T-47D breast): 2.02 µM; TGI (T-47D breast): 4.74 µM; GI50 (ACHN renal): 1.83 µM; TGI (ACHN renal): 3.42 µM; GI50 (HCT-116 colon): 2.13 µM; TGI (HCT-116 colon): 4.91 µM; GI50 (HOP-62 NSCLC): 3.55 µM; TGI (HOP-62 NSCLC): 11.3 µM
